From US20160007600A1, “SYNTHETIC LIPOCHITOOLIGOSACCHARIDE ANALOGS FOR ENHANCING PLANT PERFORMANCE” (E.I. DU PONT DE NEMOURS AND COMPANY, priority 2013, published 2016)

Assays:
soybean seeds [1] = assay: Seed germination assay; format: in vivo; conditions: for germination in 24 hours: test compound 10^−7 M in DI-water, 24 hr in dark at room temperature, radicle emergence as indicator, five repeats of 20 seeds
Experimental: Materials were all sterilized before use. An aqueous solution of the test compound (25 mL, 10^−7 M in DI-water) was prepared for a set of five repeat experiments. Five Petri dishes and 100 soybean seeds were used to test one compound. A piece of Whatman filter paper was used to cover the inner side of each Petri dish to allow uniform distribution of testing solution. Twenty soybean seeds were placed on the filter paper area of one Petri dish. 5 mL of the test compound solution was carefully poured in the Petri dish. Control experiments were set up the same way with 20 soybean seeds and 5 mL of DI-water per dish without any compounds. The lid was placed on the Petri dish and was sealed with Para-film. Five dishes with repeat experiments were stacked. One stack of dishes was wrapped twice with aluminum foil to prevent the seeds receiving any light. The stacks were transferred to an incubator maintained at room temperature and the seeds were germinated in dark. After 24 hr, the stacks were pulled out for measurement. The number of germinated seeds was counted and the percent of germination on each dish was calculated. Radicle emergence was used as the germination indicator. The dishes were placed unwrapped at room temperature for one day and the number of germinated seeds was counted to assure seeds were able to germinate and different germination yields were not caused by bad seed quality. Seeds showing above 90% of germination were considered normal. The standard deviation of five repeats was calculated. Test results with 10% or lower standard deviation was considered good. Compounds acting as plant performance enhancers should promote a significant increase in average percentage of germination compared to the control above the standard deviation.

soybean seeds [2] = assay: Plant growth assay (radical length of germinating seed); format: in vivo; conditions: soybean seeds germinated 24 hr with 10^−7 M compound, then additional 40 hr open to light at room temperature
Experimental: Plant growth assay Seeds germinated for 24 hr using the seed germination assay above were left open to light for another 40 hr. The radical length was measured and the percentage of germinating seed with radical length of greater than 1.5 cm was determined.

SMILES | germination in 24 hours (soybean seeds [1]) [%] | germinating seed with radical length longer than 1.5 cm (soybean seeds [2]) [%] | efficacy for enhanced seed germination and radical growth (summary in words) (soybean seeds [1]; conclusion from the germination and plant growth assays)
CO[C@@H]1O[C@H](CO)[C@@H](O)[C@H](O)[C@H]1NC(=O)C#Cc1ccccc1 [Example 5, N-((2R,3R,4R,5S,6R)-4,5-dihydroxy-6-(hydroxymethyl)-2-methoxytetrahydro-2H-pyran-3-yl)-3-phenylpropiolamide] | 86 | 95 | 
CO[C@@H]1O[C@H](CO)[C@@H](O)[C@H](O)[C@H]1NC(=O)/C=C/C=C/c1ccccc1 [Example 1, (2E,4E)-N-((2R,3R,4R,5S,6R)-4,5-dihydroxy-6-(hydroxymethyl)-2-methoxytetrahydro-2H-pyran-3-yl)-5-phenylpenta-2,4-dienamide] | 75 | 69 | 
CO[C@@H]1O[C@H](CO)[C@@H](O)[C@H](O)[C@H]1NC(=O)/C=C/c1cccc(C(F)(F)F)c1 [Example 4, (E)-N-((2R,3R,4R,5S,6R)-4,5-dihydroxy-6-(hydroxymethyl)-2-methoxytetrahydro-2H-pyran-3-yl)-3-(3-(trifluoromethyl)phenyl)acrylamide] | 75 | 69 | 
CO[C@@H]1O[C@H](CO)[C@@H](O)[C@H](O)[C@H]1NC(=O)/C=C/c1ccc(C)cc1 [Example 2, (E)-N-((2R,3R,4R,5S,6R)-4,5-dihydroxy-6-(hydroxymethyl)-2-methoxytetrahydro-2H-pyran-3-yl)-3-(p-tolyl)acrylamide] | 70 | 66 | 
CO[C@@H]1O[C@H](CO)[C@@H](O)[C@H](O)[C@H]1NC(=O)/C=C/c1cccc(C)c1 [Example 3, (E)-N-((2R,3R,4R,5S,6R)-4,5-dihydroxy-6-(hydroxymethyl)-2-methoxytetrahydro-2H-pyran-3-yl)-3-(m-tolyl)acrylamide] | 61 | 56 | 
CO[C@@H]1O[C@H](CO)[C@@H](O)[C@H](O)[C@H]1N [(2R,3S,4R,5R,6R)-5-amino-2-(hydroxymethyl)-6-methoxytetrahydro-2H-pyran-3,4-diol, reference compound] | 53 | 45 | insignificant efficacy
